Patent US20230407296A1, “Method to Regulate ALOX12-AS1 IncRNA-Mediated Alteration of ALOX12 Protein and to Screen for Novel Drugs to Alter ALOX12 Protein Level” (priority 2021, published 2023)

How the values were obtained:
Format in all cases: cell-based, human
ALOX12-AS1-201 lncRNA = test: Nucleo-cytoplasmic translocation of ALOX12-AS1-201 in HEK293 cells (FISH, fractionation, quantitative RT-PCR); conditions: 10 μM TPA, 1 hour
Protocol: Phorbol ester (12-O-Tetradecanoylphorbol 13-acetate: TPA) is an activator of protein kinase C (PKC) that has been frequently used for inducing differentiation in different cell types including myeloid cells. […] Therefore, we treated HEK293 cells with 10 μM TPA for 1 hour and observed ALOX12-AS1-201 nucleo-cytoplasmic translocation as well as measured ALOX12 protein level.
(§1) Total RNA from different cell lines was extracted with Trizol reagent (Catalog number: 15596026; ThermoFisher Scientific, Canada) as per the manufacturer's recommended protocol. […] Absolute quantification of ALOX12-AS1 lncRNA isoforms was performed in a Mastercycler®ep realplex real-time PCR system (Eppendorf, Hamburg, Germany) using SYBR green dye (Catalog number: S7563; ThermoFisher Scientific). […] Real-time PCR data quality control calculations were determined by the SAS program as described previously and the calculated PCR efficiency was between 95%-99%. Quantitative RT-PCR was conducted for different cell-line derived RNAs, and the specificity of each amplified product was confirmed by melting curve analysis. Results were expressed as copy number of specific isoforms per 100 ng of total RNA.
For RNA-FISH, cells were grown on coverslips and human tissue cryosections were adhered to glass slides. […] The cells were then fixed and analyzed by RNA-FISH. […]

THP-1 cells = test: TPA-induced differentiation of THP-1 cells to macrophage-like cells (ITGAM immunoblot, CD68 immunofluorescence); conditions: 100 nM TPA
Protocol: Phorbol ester (12-O-Tetradecanoylphorbol 13-acetate: TPA) is an activator of protein kinase C (PKC) that has been frequently used for inducing the differentiation of different cell types, including myeloid cells. Activation of human monocytic cells affects ALOX expression. Therefore, we induced differentiation of monocytic THP-1 cells to macrophage-like cells (MLCs) with 100 nM TPA [91, 92] and monitored the ALOX12 protein level as well as nucleo-cytoplasmic translocation of ALOX12-AS1-201. […] We concurrently monitored expression of the integrin subunit a M (ITGAM), also known as CD11b, which regulates myeloid cell polarization and is expressed in macrophages to facilitate adhesion, migration, chemotaxis, and accumulation during inflammation. […] CD68 is a transmembrane glycoprotein that is mainly located in the endosomal/lysosomal compartment but can rapidly shuttle to the cell surface in myeloid cells. […] Based on these observations, we performed nuclear and cytoplasmic fractionation at 72 hours of TPA treatment.
Relative quantification of proteins was performed as described previously. […] The immunoblots were imaged using a ChemiDoc XRS+ system (Bio-Rad) and band intensities were quantified using ImageJ (version 1.48) Software. […]

ALOX12 mRNA = test: Multiplex RT-PCR of ALOX12 mRNA in TPA-treated THP-1 derived MLCs; conditions: TPA treated (72 hours) MLCs vs vehicle treated THP-1 cells
Protocol: Phorbol ester (12-O-Tetradecanoylphorbol 13-acetate: TPA) is an activator of protein kinase C (PKC) that has been frequently used for inducing the differentiation of different cell types, including myeloid cells. Activation of human monocytic cells affects ALOX expression. Therefore, we induced differentiation of monocytic THP-1 cells to macrophage-like cells (MLCs) with 100 nM TPA [91, 92] and monitored the ALOX12 protein level as well as nucleo-cytoplasmic translocation of ALOX12-AS1-201. […] We concurrently monitored expression of the integrin subunit a M (ITGAM), also known as CD11b, which regulates myeloid cell polarization and is expressed in macrophages to facilitate adhesion, migration, chemotaxis, and accumulation during inflammation. […]
as §1, with “Quantitative RT-PCR was conducted for different cell-line derived RNAs, and the specificity of each amplified product was confirmed by melting curve analysis.” left out

CCCCCCCCCCCCCC(=O)O[C@@H]1[C@@H](C)[C@@]2(O)[C@@H](C=C(CO)C[C@]3(O)C(=O)C(C)=C[C@@H]23)[C@@H]2C(C)(C)[C@]12OC(C)=O [TPA, 12-O-Tetradecanoylphorbol 13-acetate]
ALOX12-AS1-201 nucleo-cytoplasmic translocation (ALOX12-AS1-201 lncRNA; FISH, vs vehicle (DMSO)): dramatic nucleo-cytoplasmic translocation | cytosolic ALOX12-AS1-201 lncRNA abundance (ALOX12-AS1-201 lncRNA; subcellular fractionation and quantitative RT-PCR): significant increase | ITGAM expression (THP-1 cells; immunoblot): expressed at 72 hours | CD68 expression and localization (THP-1 cells; immunofluorescence): gradually increasing expression and translocation of CD68 to endosomal structures | ALOX12 mRNA level (ALOX12 mRNA): relatively unaltered
